# Biological target: T1, Prolyl endopeptidase (Bos taurus, UniProt Q9XTA2)
# T1 construct: Prolyl endopeptidase was partially purified from bovine brain; from tissue; host or cells: bovine brain
# T1 sequence (Q9XTA2 1-710): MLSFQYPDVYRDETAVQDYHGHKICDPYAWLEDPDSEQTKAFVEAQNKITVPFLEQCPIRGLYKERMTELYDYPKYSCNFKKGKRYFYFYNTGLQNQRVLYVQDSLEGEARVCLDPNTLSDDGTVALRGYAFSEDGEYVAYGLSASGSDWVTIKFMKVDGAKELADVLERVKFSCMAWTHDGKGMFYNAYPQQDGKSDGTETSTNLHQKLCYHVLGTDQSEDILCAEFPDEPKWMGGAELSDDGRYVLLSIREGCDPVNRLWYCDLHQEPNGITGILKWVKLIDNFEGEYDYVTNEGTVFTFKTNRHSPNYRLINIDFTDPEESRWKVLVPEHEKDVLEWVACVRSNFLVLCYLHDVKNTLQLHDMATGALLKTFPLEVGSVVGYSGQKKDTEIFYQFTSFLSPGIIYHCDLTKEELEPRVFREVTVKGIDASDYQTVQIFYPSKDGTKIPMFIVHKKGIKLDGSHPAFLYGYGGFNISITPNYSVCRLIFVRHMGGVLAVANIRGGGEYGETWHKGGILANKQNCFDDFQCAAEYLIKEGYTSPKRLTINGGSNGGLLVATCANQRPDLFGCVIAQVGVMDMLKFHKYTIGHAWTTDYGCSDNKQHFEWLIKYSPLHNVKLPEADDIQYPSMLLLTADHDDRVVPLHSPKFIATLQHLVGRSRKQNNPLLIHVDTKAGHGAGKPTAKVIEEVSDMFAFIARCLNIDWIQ
# Assay: Prolyl endopeptidase enzyme inhibition assay (CBz-Gly-Pro-p-nitroanilide substrate, absorbance at 410 nm)
# Type: biochemical
# Conditions: prolyl endopeptidase partially purified from bovine brain, buffer A (50 mM HEPES pH 7.4, 1 mM EDTA, 1 mM DTT), 37° C., [S]=50 μM, KM 11 μM, read-out: ENZYME INHIBITION (enzyme inhibition constant, Ki)
# Experimental: Prolyl endopeptidase was partially purified from bovine brain essentially as described by Yoshimoto et al. (Biochem., 94, 1179 (1983)) except that 50 mM HEPES, pH 7.4, was used instead of Tris buffer. This enzyme preparation is suitable for routine inhibition measurements; however, the enzyme may be further purified as described below. The state of purity of the enzyme is not expected to effect the measured Ki. The pellet from the 50%-80% ammonium sulfate cut is redissolved in the homogenization buffer and desalted by passage through a Pharmacia Mono Q column (0.5×5 cm) at 1 ml/min and the column is washed with 5 ml of buffer A to buffer B (total 20 ml; buffer A=50 mM HEPES, pH 7.4, 1 mM EDTA and 1 mM DTT; buffer B=buffer A+0.5M NaCl). Enzyme activity elutes at about [NaCl]=0.25M.
# The enzyme is assayed in buffer A (3.0 ml) at 37° C. containing 20 μM substrate (CBz-Gly-Pro-p-nitroanilide). The increase in absorbance at 410 nm is monitored (410 nm =8.4 mM^-1 cm^-1). Inhibitor stock solutions are made in DMSO. To characterize reversible competitive inhibitors, the initial rates in the presence of three inhibitor concentrations are measured using [S]=50 μM (KM for the substrate is 11 μM). If slow binding is observed, the final equilibrium rates are used.
# The Ki for a competitive inhibitor is calculated using known formulas: vo /vi =(1+[I]/Ki, app) and Ki =Ki, app/(1+[S]/KM), where vo is the initial rate in the absence of inhibitor, vi is the initial rate in the presence of inhibitor at the concentration [I], and [S] is the substrate concentration. If "slow binding" is observed (i.e. if the approach to the binding equilibrium is slow), the final steady-state rate rather than the initial rate is taken as vi.
# Enzyme inhibition constants were found using the described methods for various compounds of formula 1.
row,Compound,Ki [nM]
1,"O=C(OCc1ccccc1)N1CCCC1C(=O)N1CCCC1C(=O)C(F)(F)C(F)(F)F (stereo not drawn) [EXAMPLE I, 2-[[2-(2,2,3,3,3-pentafluoro-1-oxopropyl)-1-pyrrolidinyl]carbonyl]-1-pyrrolidinecarboxylic acid, phenylmethyl ester]",1.4
2,"CC(C)(C)OC(=O)N1CSCC1C(=O)N1CSCC1C(=O)C(F)(F)C(F)(F)F (stereo not drawn) [EXAMPLE IV, 4-[[4-(2,2,3,3,3-pentafluoro-1-oxopropyl)-3-thiazolidinyl]carbonyl]-3-thiazolidinecarboxylic acid, 1,1-dimethylethyl ester]",1
3,"O=C(OCc1ccccc1)N1CSCC1C(=O)N1CCCC1C(=O)C(F)(F)C(F)(F)F (stereo not drawn) [EXAMPLE II, 4-[[2-(2,2,3,3,3-pentafluoro-1-oxopropyl)-1-pyrrolidinyl]carbonyl]-3-thiazolidinecarboxylic acid, phenylmethyl ester]",1
